Assay results as given in ChEMBL document CHEMBL4196004, “Discovery of novel mifepristone derivatives via suppressing KLF5 expression for the treatment of triple-negative breast cancer” (Eur J Med Chem, 2018).
Activity calls are given as the source filed them. The calls are words filed in the database; no cut-off is given here.

Experiments:
[1] = tested on: SUM149PT; assay: Antiproliferative activity against human SUM149PT cells after 48 hrs by SRB assay; assay type: functional, cell-based
[2] = tested on: HCC1937; assay: Antiproliferative activity against human HCC1937 cells after 48 hrs by SRB assay; assay type: functional, cell-based; settings: HCC1937, 48 h
[3] = tested on: SUM149PT; assay: Induction of PARP cleavage in human SUM149PT cells after 24 hrs by Western blot analysis; assay type: functional, cell-based
[4] = tested on: SUM149PT; assay: Cell cycle arrest in human SUM149PT cells assessed as decrease in cells at S phase at 5 to 10 uM after 24 hrs by propidium iodide staining-based flow cytometric analysis; assay type: functional
[5] = tested on: Rattus norvegicus; assay: AUC (0 to t) in Sprague-Dawley rat at 30 mg/kg administered via oral gavage by HPLC analysis; assay type: ADME, organism-based; settings: in vivo
[6] = Elimination half life in Sprague-Dawley rat at 30 mg/kg administered via oral gavage by HPLC analysis; assay type: ADME, organism-based; settings: in vivo, read-out: beta t1/2 (converted)
[7] = Cmax in Sprague-Dawley rat at 30 mg/kg administered via oral gavage by HPLC analysis; assay type: ADME, organism-based; design: dose 30 mg/kg, route oral; settings: in vivo
[8] = tested on: SUM149PT; assay: Cell cycle arrest in human SUM149PT cells assessed as increase in cells at G1 phase after 24 hrs by propidium iodide staining-based flow cytometric analysis; assay type: functional
[9] = tested on: HCC1937; assay: Inhibition of KLF5 expression levels in human HCC1937 cells after 24 hrs by Western blot analysis; assay type: functional, cell-based
[10] = tested on: Homo sapiens; assay: Antitumor activity against human UM1 cells implanted in Balb/C nude mouse at 1 mg, ip qd for 4 weeks; assay type: functional, organism-based
[11] = tested on: Rattus norvegicus; assay: AUC (0 to infinity) in Sprague-Dawley rat at 30 mg/kg administered via oral gavage by HPLC analysis; assay type: ADME, organism-based; design: dose 30 mg/kg, route oral, time infinity; settings: in vivo
[12] = tested on: HCC1937; assay: Induction of PARP cleavage in human HCC1937 cells after 24 hrs by Western blot analysis; assay type: functional, cell-based
[13] = Tmax in Sprague-Dawley rat at 30 mg/kg administered via oral gavage by HPLC analysis; assay type: ADME, organism-based; settings: in vivo
[14] = tested on: SUM149PT; assay: Inhibition of KLF5 expression levels in human SUM149PT cells after 24 hrs by Western blot analysis; assay type: functional, cell-based
[15] = tested on: Mus musculus; assay: Acute toxicity in KM mouse assessed as loss of body weight at 400 mg/kg, po administered as single dose and measured every 3 days; assay type: organism-based; settings: in vivo, 72 h
[16] = tested on: Mus musculus; assay: Acute toxicity in KM mouse assessed as behaviour change at 400 mg/kg, po administered as single dose; assay type: organism-based; settings: in vivo
[17] = tested on: Mus musculus; assay: Toxicity in Balb/C nude mouse implanted with human UM1 cells assessed as loss of body weight at 1 mg, ip qd for 4 weeks; assay type: organism-based; settings: in vivo, 672 h
[18] = tested on: SUM149PT; assay: Cell cycle arrest in human SUM149PT cells assessed as increase in cells at G1 phase at 20 uM after 24 hrs by propidium iodide staining-based flow cytometric analysis; assay type: functional
[19] = tested on: SUM149PT; assay: Cell cycle arrest in human SUM149PT cells assessed as decrease in cells at S phase at 20 uM after 24 hrs by propidium iodide staining-based flow cytometric analysis; assay type: functional

Row | IC50 [2] | SMILES | IC50 [1] | also measured
1 |  | CC#C[C@]1(O)CC[C@H]2[C@@H]3CCC4=CC(=O)CCC4=C3[C@@H](c3ccc(N(C)C(=O)c4ccc(Cl)c(F)c4)cc3)C[C@@]21C | > 20 µM | 
2 |  | CC#C[C@]1(O)CC[C@H]2[C@@H]3CCC4=CC(=O)CCC4=C3[C@@H](c3ccc(N(C)C(=O)c4cnccn4)cc3)C[C@@]21C | > 20 µM | 
3 |  | CC#C[C@]1(O)CC[C@H]2[C@@H]3CCC4=CC(=O)CCC4=C3[C@@H](c3ccc(N(C)C(=O)c4cncs4)cc3)C[C@@]21C | > 20 µM | 
4 | 14.7 µM | CC#C[C@]1(O)CC[C@H]2[C@@H]3CCC4=CC(=O)CCC4=C3[C@@H](c3ccc(N(C)C(=O)c4ccccc4)cc3)C[C@@]21C | 10.5 µM | 
5 | 9 µM | CC#C[C@]1(O)CC[C@H]2[C@@H]3CCC4=CC(=O)CCC4=C3[C@@H](c3ccc(N(C)C(=O)c4cccc(C)c4)cc3)C[C@@]21C | 5 µM | 
6 |  | CC#C[C@]1(O)CC[C@H]2[C@@H]3CCC4=CC(=O)CCC4=C3[C@@H](c3ccc(N(C)C(=O)c4ccc(Cl)c(C(F)(F)F)c4)cc3)C[C@@]21C | > 20 µM | 
7 |  | CC#C[C@]1(O)CC[C@H]2[C@@H]3CCC4=CC(=O)CCC4=C3[C@@H](c3ccc(N(C)C(=O)c4ccc(OC)c(Cl)c4)cc3)C[C@@]21C | > 20 µM | 
8 | 17.4 µM | CC#C[C@]1(O)CC[C@H]2[C@@H]3CCC4=CC(=O)CCC4=C3[C@@H](c3ccc(N(C)C(=O)c4ccccc4Cl)cc3)C[C@@]21C | > 20 µM | 
9 | > 20 µM | CC#C[C@]1(O)CC[C@H]2[C@@H]3CCC4=CC(=O)CCC4=C3[C@@H](c3ccc(N(C)C(=O)c4ccccn4)cc3)C[C@@]21C | > 20 µM | 
10 | 0.44 µM | COc1cccc2c1C(=O)c1c(O)c3c(c(O)c1C2=O)C[C@@](O)(C(=O)CO)C[C@@H]3O[C@H]1C[C@H](N)[C@H](O)[C@H](C)O1 [DOXORUBICIN] | 0.36 µM | 
11 | 4.2 µM | CC#C[C@]1(O)CC[C@H]2[C@@H]3CCC4=CC(=O)CCC4=C3[C@@H](c3ccc(N(C)C(=O)c4ccc(C(C)C)cc4)cc3)C[C@@]21C | 4.2 µM | 
12 |  | CC#C[C@]1(O)CC[C@H]2[C@@H]3CCC4=CC(=O)CCC4=C3[C@@H](c3ccc(N(C)C(=O)c4cccs4)cc3)C[C@@]21C | 12.5 µM | 
13 | > 20 µM | CC#C[C@]1(O)CC[C@H]2[C@@H]3CCC4=CC(=O)CCC4=C3[C@@H](c3ccc(N(C)C(C)=O)cc3)C[C@@]21C | > 20 µM | 
14 |  | CC#C[C@]1(O)CC[C@H]2[C@@H]3CCC4=CC(=O)CCC4=C3[C@@H](c3ccc(N(C)C(=O)c4ccc(OC)cc4)cc3)C[C@@]21C | 12 µM | 
15 | > 20 µM | CC#C[C@]1(O)CC[C@H]2[C@@H]3CCC4=CC(=O)CCC4=C3[C@@H](c3ccc(NC)cc3)C[C@@]21C [DESMETHYLMIFEPRISTONE] | > 20 µM | 
16 |  | CC#C[C@]1(O)CC[C@H]2[C@@H]3CCC4=CC(=O)CCC4=C3[C@@H](c3ccc(N(C)C(=O)c4cc(Cl)ccc4F)cc3)C[C@@]21C | > 20 µM | 
17 | > 20 µM | CC#C[C@]1(O)CC[C@H]2[C@@H]3CCC4=CC(=O)CCC4=C3[C@@H](c3ccc(N(C)C(=O)c4ccncc4)cc3)C[C@@]21C | > 20 µM | 

Row | IC50 [2] | SMILES | IC50 [1] | also measured
18 |  | CC#C[C@]1(O)CC[C@H]2[C@@H]3CCC4=CC(=O)CCC4=C3[C@@H](c3ccc(N(C)C(=O)c4ccccc4OC)cc3)C[C@@]21C | > 20 µM | 
19 |  | CC#C[C@]1(O)CC[C@H]2[C@@H]3CCC4=CC(=O)CCC4=C3[C@@H](c3ccc(N(C)C(=O)c4ccc(F)c(Cl)c4)cc3)C[C@@]21C | 9 µM | 
20 | 9.7 µM | CC#C[C@]1(O)CC[C@H]2[C@@H]3CCC4=CC(=O)CCC4=C3[C@@H](c3ccc(N(C)C(=O)c4ccc(Cl)cc4)cc3)C[C@@]21C | 16.2 µM | 
21 | 4.2 µM | CC#C[C@]1(O)CC[C@H]2[C@@H]3CCC4=CC(=O)CCC4=C3[C@@H](c3ccc(N(C)C(=O)c4ccc(C(C)(C)C)cc4)cc3)C[C@@]21C | 3.5 µM | 
22 | > 20 µM | CC#C[C@]1(O)CC[C@H]2[C@@H]3CCC4=CC(=O)CCC4=C3[C@@H](c3ccc(N(C)C(=O)c4ccc(-c5ccccc5)cc4)cc3)C[C@@]21C | 16 µM | 
23 | > 20 µM | CC#C[C@]1(O)CC[C@H]2[C@@H]3CCC4=CC(=O)CCC4=C3[C@@H](c3ccc(N(C)S(=O)(=O)c4ccccc4)cc3)C[C@@]21C | > 20 µM | 
24 | 6.1 µM | CC#C[C@]1(O)CC[C@H]2[C@@H]3CCC4=CC(=O)CCC4=C3[C@@H](c3ccc(N(C)C(=O)c4ccc5ccccc5c4)cc3)C[C@@]21C | 5 µM | 
25 | 9.1 µM | CC#C[C@]1(O)CC[C@H]2[C@@H]3CCC4=CC(=O)CCC4=C3[C@@H](c3ccc(N(C)C(=O)c4ccc(C)cc4)cc3)C[C@@]21C | 5 µM | 
26 | > 20 µM | CC#C[C@]1(O)CC[C@H]2[C@@H]3CCC4=CC(=O)CCC4=C3[C@@H](c3ccc(N(C)C)cc3)C[C@@]21C [MIFEPRISTONE] | 15 µM | Activity [3]: Dose-dependent effect; AUCt [5]: 1.97 mg/L/h; half-life [6]: 181 min; Cmax [7]: 360 ng/mL; Activity [18]: inactive; inhibition [9]: Dose-dependent effect; Activity [10]: Active; AUC [11]: 2.42 mg·h/L; Activity [12]: Dose-dependent effect; Tmax [13]: 3.38 h; inhibition [14]: Dose-dependent effect; Activity [19]: Active; Activity [17]: Non-Toxic
27 | 9 µM | CC#C[C@]1(O)CC[C@H]2[C@@H]3CCC4=CC(=O)CCC4=C3[C@@H](c3ccc(N(C)C(=O)Cc4ccccc4)cc3)C[C@@]21C | 7 µM | 
28 | > 20 µM | CC#C[C@]1(O)CC[C@H]2[C@@H]3CCC4=CC(=O)CCC4=C3[C@@H](c3ccc(N(C)S(=O)(=O)c4ccc(C)cc4)cc3)C[C@@]21C | > 20 µM | 
29 |  | CC#C[C@]1(O)CC[C@H]2[C@@H]3CCC4=CC(=O)CCC4=C3[C@@H](c3ccc(N(C)C(=O)c4cc(Cl)cc(Cl)c4)cc3)C[C@@]21C | 9 µM | 
30 |  | CC#C[C@]1(O)CC[C@H]2[C@@H]3CCC4=CC(=O)CCC4=C3[C@@H](c3ccc(N(C)C(=O)c4nccs4)cc3)C[C@@]21C | > 20 µM | 
31 |  | CC#C[C@]1(O)CC[C@H]2[C@@H]3CCC4=CC(=O)CCC4=C3[C@@H](c3ccc(N(C)C(=O)c4cccc(OC)c4)cc3)C[C@@]21C | 18 µM | 
32 |  | CC#C[C@]1(O)CC[C@H]2[C@@H]3CCC4=CC(=O)CCC4=C3[C@@H](c3ccc(N(C)C(=O)c4ccc(C)c(Cl)c4)cc3)C[C@@]21C | 4.7 µM | 
33 | 10.6 µM | CC#C[C@]1(O)CC[C@H]2[C@@H]3CCC4=CC(=O)CCC4=C3[C@@H](c3ccc(N(C)C(=O)c4cccc(Cl)c4)cc3)C[C@@]21C | 14.3 µM | 
34 | 6.1 µM | CC#C[C@]1(O)CC[C@H]2[C@@H]3CCC4=CC(=O)CCC4=C3[C@@H](c3ccc(N(C)C(=O)c4ccc(C)c(C)c4)cc3)C[C@@]21C | 5.6 µM | 

Row | SMILES | IC50 [2] | IC50 [1] | also measured
35 | CC#C[C@]1(O)CC[C@H]2[C@@H]3CCC4=CC(=O)CCC4=C3[C@@H](c3ccc(N(C)C(=O)c4ccc(Cl)c(Cl)c4)cc3)C[C@@]21C | 7.9 µM | 3.6 µM | Activity [3]: Dose-dependent effect; Activity [4]: Active; AUCt [5]: 2.45 mg/L/h; half-life [6]: 173 min; Cmax [7]: 550 ng/mL; Activity [8]: Dose-dependent effect; inhibition [9]: Dose-dependent effect; Activity [10]: Active; AUC [11]: 2.91 mg·h/L; Activity [12]: Dose-dependent effect; Tmax [13]: 2.17 h; inhibition [14]: Dose-dependent effect; Activity [15]: Non-Toxic; Activity [16]: Non-Toxic; Activity [17]: Non-Toxic
